Key:
Type in all cases: cell-based, human
[1] = tested on: HeLa cells; assay: MTT cytotoxicity assay, HeLa; settings: for Selectivity index (SI): IC50 healthy cells (MRC-5)/IC50 tumor cells; for Cytotoxicity range: concentration range 1–100 μM; for IC50: Homo sapiens, MTT
Description: (§1) To examine and compare the antiproliferative activities of four enones, the cytotoxicity of the compounds was assessed by the 3-(4,5-dimethylthiazol-2-yl)-2,5-diphenyltetrazolium bromide (MTT) assay[9] in, colon cancer cells (HCT-116), cervical cancer cell line (HeLa) and human fibroblast lung cell line (MRC-5) that was used as a healthy control cell line. After trypsinization, seeded (5 × 10^3 cells per well in 96-well plates) cells were treated with different concentrations of the investigated enones (1, 3, 10, 30, and 100 μM) during 48 and 72 h period incubation period +37 °C and 5–6.5% CO2. After the incubation period, the medium was removed and MTT solution (5 mg ml^−1) was added to the wells.
(§2) After a 3 hour incubation with the MTT solution, the resulting formazan crystals were dissolved in DMSO (67-68-5, Merck). Absorbance was subsequently measured at 595 nm using a microplate reader (Zenith 3100, Anthos Labtech Instruments). The percentage of cytotoxic cells was determined using the formula: cytotoxicity (%) = (1 − (exp. group (ABS))/(control group (ABS)) × 100). IC50 values were calculated using GraphPad Prism 10 software. The selectivity index (SI) was determined using the formula: SI?IC50 value for healthy cells/IC50 value for tumor cells.[9]

[2] = tested on: HCT-116 cells; assay: MTT cytotoxicity assay, HCT-116; settings: for Cytotoxicity range: concentration range 1–100 μM; for Selectivity index (SI): IC50 healthy cells (MRC-5)/IC50 tumor cells; for IC50: Homo sapiens, MTT
Description: as §1, §2

[3] = tested on: MRC-5 cells; assay: MTT cytotoxicity assay, MRC-5 healthy control cells; settings: Homo sapiens
Description: as §1, §2

[4] = tested on: HCT-116 cells; assay: Annexin V-FITC/7-AAD apoptosis flow cytometry, HCT-116; settings: IC50 concentration, 48 h
Description: (§3) The type of cell death was assessed using flow cytometry using FITC Annexin V Apoptosis Detection Kit with 7-AAD (640922, Bio legend).[8] […] After treatment, cells were harvested, washed with PBS (resuspended in 100 μl of ice-cold 1X binding buffer), stained (20 μl of 7-AAD and 10 μl of Annexin V-FITC), and incubated in the dark for 15 min at +4 °C. After incubation, 400 μl of binding buffer was added and the samples were analyzed using flow cytometer Cytomics FC500 (Beckman Coulter, USA). Data analysis was performed using FlowJo Software and presented with histogram and dot plots.

[5] = tested on: HeLa cells; assay: Annexin V-FITC/7-AAD apoptosis flow cytometry, HeLa; settings: IC50 concentration, 48 h
Description: as §3

[6] = tested on: Bax and Bcl-2 in HCT-116 cells; assay: Flow cytometric analysis of Bax and Bcl-2 expression, HCT-116; settings: HCT-116, IC50 concentration, 48 h, from MFI
Description: (§4) Cells were washed with PBS, fixed, permeabilized using Fixation and Permeabilization Kit (eBioscience), and stained separately for Bcl-2, Bax, and cleaved-caspase-3.[8,9] Permeabilized cells were incubated with primary antibodies: mouse anti-human-Bcl-2 (DC21, sc-783, Santa Cruz Biotech. Inc.), mouse anti-human Bax (N20, sc-493, Santa Cruz Biotech. Inc.), and anti-cleaved caspase-3 (Cell signaling Technology 9661). Following antibody incubation, cells were washed and incubated with secondary Alexa 488-conjugated antibodies (ab185015, Abcam, United Kingdom) for 30 minutes. After an additional wash with PBS, flow cytometry analysis was performed.
(§5) Data were analyzed using FlowJo Software. The expression of Bcl-2 and Bax proteins was quantified as mean fluorescence intensity (MFI). The results were presented with bar graphs. Bax/Bcl-2 index was calculated using the formula […]. The percentage of cells expressing active caspase-3 (MFI) was presented in histograms.

[7] = tested on: Bax and Bcl-2 in HeLa cells; assay: Flow cytometric analysis of Bax and Bcl-2 expression, HeLa; settings: IC50 concentration, 48 h; for Bax/Bcl-2 ratio: from MFI
Description: as §4, §5

[8] = tested on: active caspase-3 in HCT-116 cells; assay: Flow cytometric analysis of active caspase-3, HCT-116; settings: IC50 concentration, 48 h, vs control
Description: as §4, §5

[9] = tested on: active caspase-3 in HeLa cells; assay: Flow cytometric analysis of active caspase-3, HeLa; settings: IC50 concentration, 48 h, vs control
Description: as §4, §5

[10] = tested on: mitochondrial membrane potential (ΔΨm) in HCT-116 cells; assay: Mitochondrial membrane potential (ΔΨm) JC-10 analysis, HCT-116; settings: IC50 concentration, 48 h
Description: (§6) Changes in the ΔΨm caused by 48 hours of enones treatment, were assessed using JC-10 dye.[10]. (Enzo Life Sciences, Farmingdale, NY, USA).
(§7) In healthy cells, JC-10 dye accumulates in the mitochondria as red fluorescent aggregates. However, upon cell damage, changes in ΔΨm occur and result in dislocation of JC-10 from the mitochondria to the cytosol and the monomerization of aggregates, shifting fluorescence from red to green. Cells were cultured in 24-well plate (3 × 10^4 cells per well) overnight in the incubator (5% CO2, 37 °C). […] Following treatment, cells were washed with warm 1xPBS and incubated with JC-10 dye (2.5 μM in warm PBS) at 5% CO2, 37 °C for 20 minutes. Cells were then washed with 1xPBS and observed using an Olympus IX50 inverted fluorescence microscope. Images were captured and analyzed using ImageJ software. The ratio of fluorescence emissions at 525 and 590 nm was used for quantification analysis.

[11] = tested on: mitochondrial membrane potential (ΔΨm) in HeLa cells; assay: Mitochondrial membrane potential (ΔΨm) JC-10 analysis, HeLa; settings: IC50 concentration, 48 h
Description: as §6, §7

[12] = tested on: cytochrome c in HCT-116 cells; assay: Cytochrome c localization by immunofluorescence, HCT-116; settings: IC50 concentration, 48 h
Description: After 48 hours of treatment, immunofluorescence analysis of cytochrome c distribution and expression in treated cells was performed using glass coverslips.[10] Following the treatment, cells were washed with PBS, fixed in 4% formaldehyde for 20 min, and permeabilized with 0.2% Tween-20. Blocking was performed using a buffer containing 0.1% Tween-20 and 10% FBS for 30 min. The cells were then incubated for 1 hour at room temperature with a monoclonal mouse anti-human cytochrome c antibody (1:100, G7421, Promega, USA,)
Subsequently, the cells were incubated for 30 minutes with a goat anti-mouse FITC (1:200, diluted in blocking buffer), washed, and images were acquired using an inverted fluorescence microscope (Olympus IX50). Image analysis was performed using ImageJ software.

[13] = tested on: HCT-116 cells; assay: Cell cycle analysis (PI, flow cytometry), HCT-116; settings: IC50 concentration, 48 h; control 27.4%
Description: (§8) After treatment of HCT-116 and HeLa cells with enones, cells were harvested, washed with PBS, and fixed in 70% ice-cold ethanol at +4 °C overnight.[10] The cells were then pelleted, resuspended in 1 ml PBS containing RNAse A (12091021, Sigma Aldrich), and incubated for 30 min at 37 °C. A staining solution containing propidium iodide (1 mg PI per ml PBS) (B7758, Biotrend) was added to cells, followed by 15 min incubation in the dark. Cells were analyzed by flow cytometer Cytomics FC500. DNA content was determined using Flowing Software and cell cycle distribution was presented by graph (histograms).

[14] = tested on: HeLa cells; assay: Cell cycle analysis (PI, flow cytometry), HeLa; settings: IC50 concentration, 48 h; control 29.9%
Description: as §8

| Structure (SMILES) | Selectivity index (SI) ([1]; 48 h) | Cytotoxicity range ([1]; 48 h) | Selectivity index (SI) ([1]; 72 h) | Cytotoxicity range ([1]; 72 h) | IC50 ([1]; 48 h) [µM] | IC50 ([1]; 72 h) [µM] | Cytotoxicity range ([2]; HCT-116, 48 h) | Selectivity index (SI) ([2]; HCT-116, 48 h) | Cytotoxicity range ([2]; HCT-116, 72 h) | Selectivity index (SI) ([2]; HCT-116, 72 h) | IC50 ([2]; HCT-116, 48 h) [µM] | IC50 ([2]; HCT-116, 72 h) [µM] | IC50 ([3]; MRC5, MRC-5, 48 h) [µM] | IC50 ([3]; MRC5, MRC-5, 72 h) [µM] | increase of percentage of apoptotic HCT-116 cells compared to control HCT-116 cells [4] [fold] | percentage of total apoptotic HCT-116 cells (sum of early and late) [4] [%] | total percentage of apoptotic HeLa cells [5] [%] | Bax/Bcl-2 ratio [6] | Bax/Bcl-2 ratio [7] | MFI of active caspase-3 in HCT-116 (fold change) [8] [fold change] | also measured |
| --- | --- | --- | --- | --- | --- | --- | --- | --- | --- | --- | --- | --- | --- | --- | --- | --- | --- | --- | --- | --- | --- |
| COc1cc(/C=C/C(=O)C(C)C)ccc1OCC(=O)O [E2, (E)-2-(2-Methoxy-4-(4-methyl-3-oxopent-1-en-1-yl)phenoxy)acetic acid] | 14.96 | 4.74–51.94% | 26.23 | 32.98–71.66% | 13.4 ± 1.43 | 3.43 ± 0.09 | 10.87–71.88% | 39.22 | 65.23–72.73% | 100.63 | 5.1 ± 0.92 | 0.9 ± 0.02 | > 200 | > 90 | 8.8 | 61.6 | 54.02 | 1.9 | 1.4 | 2.4 | percentage of cytotoxic HCT-116 cells compared to HeLa cells (fold) ([2]; 48 h, over the applied doses): 1.3–2.3 fold; percentage of cytotoxic HCT-116 cells compared to control MRC-5 cells (fold) ([2]; 48 h, over the applied doses): 2.9–5.2 fold; Bcl-2 protein expression vs control cells ([7]; p < 0.05): decreased; MFI of active caspase-3 in HeLa (fold change) [9]: 2 fold change; JC10-green/JC10 red ratio in HCT-116 cells [10]: 2.15; JC10-green/JC10 red ratio in HeLa cells [11]: 1.9; RELATIVE RATIO OF CYTOSOL CYTC TO MITOCHONDRIAL CYT C IN HCT-116 CELLS [12]: 1.5; % OF HCT-116 CELLS, G2/M [13]: 56.1%; % OF HELA CELLS, G2/M [14]: 66% |
| COc1cc(/C=C/C(=O)C2CC2)ccc1OCC(=O)O [E4, (E)-2-(4-(3-Cyclopropyl-3-oxoprop-1-en-1-yl)-2-methoxyphenoxy)acetic acid] | 4.97 | 12.12–60.72% | 19.41 | 42.39–59.81% | 20.1 ± 1.19 | 4.12 ± 0.08 | 39.29–68.45% | 10.62 | 65.85–71.44% | 40.00 | 9.42 ± 1.78 | 2 ± 0.01 | > 100 | > 80 | 6.7 | 47.23 | 33.18 | 1.4 | 1 | 1.9 | MFI of active caspase-3 in HeLa (fold change) [9]: 1.6 fold change; JC10-green/JC10 red ratio in HCT-116 cells [10]: 1.4; JC10-green/JC10 red ratio in HeLa cells [11]: 1.2; RELATIVE RATIO OF CYTOSOL CYTC TO MITOCHONDRIAL CYT C IN HCT-116 CELLS [12]: 0.9; % OF HCT-116 CELLS, G2/M [13]: 41.4%; % OF HELA CELLS, G2/M [14]: 61.9% |
